Among the data in US20230399342A1 (Incyte Corporation, priority 2022, published 2023) are IC50 values, retold here.

One test has as its target DGKα (Homo sapiens (Human), UniProt P23743). Kind of test: In vitro DGKα inhibition assay (ADP-Glo). It counts as biochemical. The conditions noted are these: His-tagged human recombinant enzyme, 0.1 nM DGKα, 50 μM ATP, 20 μM DLG, 90 minute incubation. On the procedure: (§1) The DGKα and DGKξ biochemical reactions were performed using His-tagged human recombinant enzymes (Signal Chem, DGKα, #D21-1OBH; DGKξ, #D30-10H)) and DLG (Dilauroyl-sn-glycerol) lipid substrate (Signal Chem, #D430-59). ADP-Glo assay was performed using ADP-Glog™ kinase Assay kit (Promega, #V9104). The reactions were carried out in assay buffer containing 40 mM Tris, pH 7.5, 0.1% CHAPS, 0.1% Prionex, 40 mM NaCl, 5 mM MgCl2, 1 mM CaCl2, and 1 mM DTT. DGKα reactions contained 0.1 nM DGKα, 50 μM ATP, and 20 μM DLG. And DGKC reactions contained 0.4 nM DGK, 30 μM ATP, and 20 μM DLG.
(§2) For compound inhibition studies, 40 nL test compound in DMSO was added to wells of white polystyrene plates in 384-well (Greiner, #784075) or 1536-well format (Greiner, #782075). Compounds were added with top concentration of 2 mM with 11 point, 3-fold dilution series. Enzyme solution (contains 2×DGK enzyme concentration in Ix assay buffer) was added to the plate in 2 μL/well volume, followed by 2 μL/well of substrate solution (contains 2×concentration of ATP and DLG substrate in Ix assay buffer). Plates were then centrifuged for 1 min at 1200 RPM and sealed or lidded. For 4 μL reaction volume, test compounds were therefore diluted 100× to final top concentration of 20 μM. After 90 minute incubation, reactions were quenched by addition of 2 μL/well Promega ADP-Glo Reagent, followed by centrifugation and lidding. After 60 min incubation, 2 μL/well Promega Kinase Detection Reagent was added, plates centrifuged, and incubated for 30 min. Plates were then read using Luminescence method on BMG PHERAstar FSX plate reader. Percent inhibition was calculated and IC50s were determined using 4-parameter fit in Genedata Screener. Labcyte Echo acoustic dispenser was used for compound addition, and Formulatrix Tempest liquid handler was used for all reagent dispenses.
A general note: ADP-Glo first removes unused ATP, then detects ADP through luciferase.

The next test deals with DGKζ (Homo sapiens (Human), UniProt Q13574). Kind of test: In vitro DGKζ inhibition assay (ADP-Glo). It counts as biochemical. The settings on record: His-tagged human recombinant enzyme, 0.4 nM DGK, 30 μM ATP, 20 μM DLG, 90 minute incubation. On the procedure: as §1, §2
DGKζ, sequence (Q13574 whole entry): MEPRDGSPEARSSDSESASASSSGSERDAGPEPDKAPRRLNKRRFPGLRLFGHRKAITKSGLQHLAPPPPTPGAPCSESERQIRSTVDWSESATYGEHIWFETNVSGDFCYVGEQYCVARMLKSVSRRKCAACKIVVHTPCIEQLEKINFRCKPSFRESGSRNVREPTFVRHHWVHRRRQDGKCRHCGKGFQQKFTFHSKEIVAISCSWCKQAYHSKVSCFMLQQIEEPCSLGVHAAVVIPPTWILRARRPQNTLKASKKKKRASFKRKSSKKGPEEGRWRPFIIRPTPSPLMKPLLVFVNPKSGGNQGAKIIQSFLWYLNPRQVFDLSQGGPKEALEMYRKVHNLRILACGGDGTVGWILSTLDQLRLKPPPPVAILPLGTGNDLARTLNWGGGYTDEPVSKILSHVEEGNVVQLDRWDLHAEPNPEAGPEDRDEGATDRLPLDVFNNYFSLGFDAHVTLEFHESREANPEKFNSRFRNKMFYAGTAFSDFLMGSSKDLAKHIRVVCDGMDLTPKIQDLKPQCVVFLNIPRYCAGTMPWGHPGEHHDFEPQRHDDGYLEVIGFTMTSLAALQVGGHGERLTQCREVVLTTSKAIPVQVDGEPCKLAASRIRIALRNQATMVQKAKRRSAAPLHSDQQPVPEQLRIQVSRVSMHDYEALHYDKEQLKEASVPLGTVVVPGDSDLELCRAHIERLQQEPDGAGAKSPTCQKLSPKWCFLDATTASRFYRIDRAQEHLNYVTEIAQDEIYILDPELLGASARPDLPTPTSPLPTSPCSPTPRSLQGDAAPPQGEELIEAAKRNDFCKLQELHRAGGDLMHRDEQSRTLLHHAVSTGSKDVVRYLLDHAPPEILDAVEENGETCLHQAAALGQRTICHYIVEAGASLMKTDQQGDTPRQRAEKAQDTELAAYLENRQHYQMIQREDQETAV

DGKα, sequence (P23743 whole entry): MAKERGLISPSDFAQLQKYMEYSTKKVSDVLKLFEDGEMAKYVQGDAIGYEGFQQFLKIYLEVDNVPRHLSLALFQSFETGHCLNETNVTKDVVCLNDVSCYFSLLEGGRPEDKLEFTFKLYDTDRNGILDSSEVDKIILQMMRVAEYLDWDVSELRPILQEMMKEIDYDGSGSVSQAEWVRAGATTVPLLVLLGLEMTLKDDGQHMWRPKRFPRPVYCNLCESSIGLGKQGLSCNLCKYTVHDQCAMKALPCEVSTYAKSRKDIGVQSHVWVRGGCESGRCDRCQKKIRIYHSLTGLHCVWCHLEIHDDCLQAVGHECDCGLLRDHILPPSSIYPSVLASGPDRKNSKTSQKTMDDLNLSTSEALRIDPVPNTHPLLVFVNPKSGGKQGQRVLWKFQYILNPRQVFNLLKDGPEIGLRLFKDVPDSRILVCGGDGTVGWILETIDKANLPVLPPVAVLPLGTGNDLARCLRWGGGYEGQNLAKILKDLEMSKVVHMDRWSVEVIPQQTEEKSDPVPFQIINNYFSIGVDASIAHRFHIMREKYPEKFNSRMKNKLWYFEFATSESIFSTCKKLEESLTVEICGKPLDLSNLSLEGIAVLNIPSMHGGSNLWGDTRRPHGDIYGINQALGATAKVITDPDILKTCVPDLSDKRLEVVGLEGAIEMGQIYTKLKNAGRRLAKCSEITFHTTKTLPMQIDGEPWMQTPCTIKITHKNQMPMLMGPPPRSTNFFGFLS

In general, IC50 refers to the concentration at which inhibition is half-maximal. With `CC[C@@H]1CN(c2nc3nncn3c3c2nnn3C[C@@H]2CCCO2)[C@@H](C)CN1C(c1ccc(Cl)cc1)C1CC(F)(F)C1` (stereo partly drawn) [Example 121, 4-((2S,5R)-4-((4-Chlorophenyl)(3,3-difluorocyclobutyl)methyl)-5-ethyl-2-methylpiperazin-1-yl)-1-(((S)-tetrahydrofuran-2-yl)methyl)-1H-[1,2,3]triazolo[4,5-e][1,2,4]triazolo[4,3-a]pyrimidine], the IC50 at DGKα and at DGKζ was ≤ 20 nM throughout.
Consider `Cc1nc2c(N3C[C@@H]([C@@H](C)O)N(C(c4ccc(F)cc4)c4ccc(F)cc4)C[C@@H]3C)nc3nncn3c2n1C[C@@H]1CCCO1` [Example 123, (R)-1-((2S,5S)-1-(Bis(4-fluorophenyl)methyl)-5-methyl-4-(2-methyl-1-(((S)-tetrahydrofuran-2-yl)methyl)-1H-[1,2,4]triazolo[3,4-b]purin-4-yl)piperazin-2-yl)ethan-1-ol], for which the IC50 on DGKα and on DGKζ was ≤ 20 nM throughout.
Take `COc1cccc([C@H](C(C)C)N2C[C@H](C)N(c3nc4nncn4c4c3nc(C)n4C[C@@H]3CCCO3)C[C@H]2C)c1` [Example 98, 4-((2S,5R)-4-((S)-1-(3-Methoxyphenyl)-2-methylpropyl)-2,5-dimethylpiperazin-1-yl)-2-methyl-1-(((S)-tetrahydrofuran-2-yl)methyl)-1H-[1,2,4]triazolo[3,4-b]purine]: the IC50 on DGKα and at DGKζ was ≤ 20 nM in each case.
Regarding `Cc1nc2c(N3C[C@@H](C)N([C@H](c4ccc(OC(F)F)cc4)C(C)C)C[C@@H]3C)nc3nncn3c2n1C[C@@H]1CCCO1` [Example 79, 4-((2S,5R)-4-((S)-1-(4-(Difluoromethoxy)phenyl)-2-methylpropyl)-2,5-dimethylpiperazin-1-yl)-2-methyl-1-(((S)-tetrahydrofuran-2-yl)methyl)-1H-[1,2,4]triazolo[3,4-b]purine], the IC50 at DGKα and on DGKζ was ≤ 20 nM in each case.
`C[C@@H]1CN(c2nc3nncn3c3c2ncn3C[C@@H]2CCCO2)[C@@H](C)CN1C(c1ccc(Cl)cc1)c1ccc(Cl)cc1` [Example 93, 4-((2S,5R)-4-(Bis(4-chlorophenyl)methyl)-2,5-dimethylpiperazin-1-yl)-1-(((S)-tetrahydrofuran-2-yl)methyl)-1H-[1,2,4]triazolo[3,4-b]purine]: the concentration for half-maximal inhibition (IC50) at DGKα and at DGKζ was ≤ 20 nM in each case.
Turning to `C[C@@H]1CN(c2nc3nncn3c3c2ncn3CCN(C)C)[C@@H](C)CN1C(c1ccc(Cl)c(F)c1)C1CC(F)(F)C1` (stereo partly drawn) [Example 136, 2-(4-((2S,5R)-4-((4-Chloro-3-fluorophenyl)(3,3-difluorocyclobutyl)methyl)-2,5-dimethylpiperazin-1-yl)-1H-[1,2,4]triazolo[3,4-b]purin-1-yl)-N,N-dimethylethan-1-amine], the IC50 at DGKα and on DGKζ was ≤ 20 nM each time.
On to `CC[C@@H]1CN(c2nc3nncn3c3c2nc(C)n3C[C@@H]2CCCO2)[C@@H](C)CN1C(c1ccc(F)cc1)c1ccc(C#N)cc1` (stereo partly drawn) [Example 133, 4-(((2R,5S)-2-Ethyl-5-methyl-4-(2-methyl-1-(((S)-tetrahydrofuran-2-yl)methyl)-1H-[1,2,4]triazolo[3,4-b]purin-4-yl)piperazin-1-yl)(4-fluorophenyl)methyl)benzonitrile], for which the IC50 on DGKα and at DGKζ was ≤ 20 nM in each case.
Turning to `CC[C@@H]1CN(c2nc3nncn3c3c2nc(C)n3C[C@@H]2CCCO2)[C@@H](C)CN1[C@@H](c1ccc(OC(F)(F)F)cc1)C(C)C` [Example 131, 4-((2S,5R)-5-ethyl-2-methyl-4-((R)-2-methyl-1-(4-(trifluoromethoxy)phenyl)propyl)piperazin-1-yl)-2-methyl-1-(((S)-tetrahydrofuran-2-yl)methyl)-1H-[1,2,4]triazolo[3,4-b]purine], the IC50 on DGKα and at DGKζ was ≤ 20 nM throughout.
Consider `Cc1nc2c(N3C[C@@H](C)N([C@@H](c4ccc(Br)cc4)C(C)C)C[C@@H]3C)nc3nncn3c2n1C[C@@H]1CCCO1` [Example 139, 4-((2S,5R)-4-((R)-1-(4-bromophenyl)-2-methylpropyl)-2,5-dimethylpiperazin-1-yl)-2-methyl-1-(((S)-tetrahydrofuran-2-yl)methyl)-1H-[1,2,4]triazolo[3,4-b]purine], for which the IC50 on DGKα and at DGKζ was ≤ 20 nM in each case.
For the compound `Cc1nc2c(N3C[C@@H](C)N(C(c4ccc(C(F)(F)F)c(F)c4)C4CC(F)(F)C4)C[C@@H]3C)nc3nncn3c2n1C[C@@H]1CCCO1` (single isomer, unassigned) [Example 45], the IC50 on DGKα and at DGKζ was ≤ 20 nM each time.
In the case of `C[C@@H]1CN(c2nc3nncn3c3c2nnn3C[C@H]2CCCO2)[C@@H](C)CN1C(c1ccc(Cl)cc1)c1ccc(Cl)cc1` [Example 106, 4-((2S,5R)-4-(Bis(4-chlorophenyl)methyl)-2,5-dimethylpiperazin-1-yl)-1-(((R)-tetrahydrofuran-2-yl)methyl)-1H-[1,2,3]triazolo[4,5-e][1,2,4]triazolo[4,3-a]pyrimidine], the IC50 at DGKα and at DGKζ was ≤ 20 nM throughout.
For `N#CCC[C@@H]1CN(c2nc3nncn3c3scnc23)CCN1C(c1ccc(F)cc1)c1ccc(F)cc1` [Example 17, (R)-3-(1-(Bis(4-fluorophenyl)methyl)-4-(thiazolo[4,5-e][1,2,4]triazolo[4,3-a]pyrimidin-4-yl)piperazin-2-yl)propanenitrile], the figures for the IC50 on DGKα and on DGKζ were ≤ 20 nM and 20 to 200 nM, respectively.
Taken in the same sequence, the figures for `CC[C@H]1CN(C(c2ccc(F)cc2)c2ccc(F)cc2)[C@H](CC)CN1c1nc2nncn2c2c1nnn2C[C@H]1CCCO1` [Example 33, 4-((2S,5R)-4-(Bis(4-fluorophenyl)methyl)-2,5-diethylpiperazin-1-yl)-1-(((R)-tetrahydrofuran-2-yl)methyl)-1H-[1,2,3]triazolo[4,5-e][1,2,4]triazolo[4,3-a]pyrimidine] were ≤ 20 nM and ≤ 20 nM.
On the same counts, the results for `CC[C@@H]1CN(c2nc3nncn3c3c2nc(C)n3C[C@@H]2CCCO2)[C@@H](C)CN1C(c1ccc(F)cc1)c1ccc(F)cc1` [Example 20, 4-((2S,5R)-4-(Bis(4-fluorophenyl)methyl)-5-ethyl-2-methylpiperazin-1-yl)-2-methyl-1-(((S)-tetrahydrofuran-2-yl)methyl)-1H-[1,2,4]triazolo[3,4-b]purine] are ≤ 20 nM and ≤ 20 nM.
Turning to `Cc1nc2c(N3C[C@@H](C)N(C(c4ccc(Br)cc4)c4ccc(F)c(Cl)c4)C[C@@H]3C)nc3nncn3c2n1C[C@@H]1CCCO1` (single isomer, unassigned) [Example 141], the IC50 on DGKα and at DGKζ was ≤ 20 nM in each case.
As to `CC[C@@H]1CN(c2nc3nncn3c3c2nnn3C[C@H]2CCCO2)[C@@H](C)CN1C(c1ccc(Cl)cc1)c1ccc(Cl)cc1` [Example 40, 4-((2S,5R)-4-(Bis(4-chlorophenyl)methyl)-5-ethyl-2-methylpiperazin-1-yl)-1-(((R)-tetrahydrofuran-2-yl)methyl)-1H-[1,2,3]triazolo[4,5-e][1,2,4]triazolo[4,3-a]pyrimidine], the IC50 on DGKα and on DGKζ was ≤ 20 nM throughout.
Regarding `C[C@@H]1CN(c2nc3nncn3c3ccsc23)[C@@H](C)CN1C(c1ccc(F)cc1)c1ccc(F)cc1` [Example 8, 5-((2S,5R)-4-(Bis(4-fluor ophenyl)methyl)-2,5-dimethylpiperazin-1-yl)thieno[2,3-e][1,2,4]triazolo[4,3-a]pyrimidine], the IC50 at DGKζ lay within 200 to 2000 nM.
